Reference: ChEMBL document CHEMBL1201862, “PubChem BioAssay data set” (2004)
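Following 48 hours of exposure in 96-well plates, responses at five concentrations were used to interpolate endpoints linearly. Here, GI50 denotes the concentration required for 50% inhibition of growth.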 Active and inactive are the calls of the source. Rule as the data show it: active = GI50 up to about 1.1 µM and inactive = higher.

Legend:
Experiment in all cases: NCI-60 cell line screen, 48 h
[1] = system: SNB-78
[2] = system: XF498
[3] = system: HOP-18
[4] = system: DLD-1
[5] = system: DMS-114
[6] = system: M19-MEL
[7] = system: DMS-273
[8] = system: RXF 631
[9] = system: LXFL 529

Measured: GI50

O=c1/c(=C/c2c(O)ccc3ccccc23)sc2nc3ccccc3n12
inactive: [1] > 100 µM | [2] > 100 µM | [3] > 100 µM | [4] > 100 µM | [5] > 100 µM | [6] > 100 µM | [7] > 100 µM | [8] > 100 µM | [9] > 100 µM

COc1ccc(/C(Cl)=C(/c2ccc(O)cc2)c2ccc(OCCN(C)C)cc2)cc1
inactive: [1] 14.5 µM | [2] 3.65 µM | [3] 12.5 µM | [4] 15.7 µM | [5] 7.18 µM | [6] 3.72 µM | [7] 11.1 µM | [8] 12.4 µM | [9] 10.8 µM

O=c1c(O)c(-c2ccc(O)c(O)c2)oc2cc(O)cc(O)c12 [QUERCETIN]
inactive: [1] > 100 µM | [2] 72.8 µM | [3] > 100 µM | [4] 37.2 µM | [5] 36.5 µM | [6] 77.8 µM | [7] 49.7 µM | [8] 38.1 µM | [9] > 100 µM
